Source: ChEMBL document CHEMBL1201862, “PubChem BioAssay data set” (2004)
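How tested: cells in 96-well plates exposed to compound for 48 hours at five concentrations. Abbreviation: GI50, concentration required for 50% inhibition of growth.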 Active and inactive are the calls of the source. Rule as the data show it: active = GI50 up to about 1.1 µM and inactive = higher.

Key:
Experiment in all cases: inhibition of tumour cell growth, NCI panel, 48 h
786-0 = tested on: 786-0
HL-60 = tested on: HL-60
K562 = tested on: K562
LOX IMVI = tested on: LOX IMVI
MOLT-4 = tested on: MOLT-4
OVCAR-3 = tested on: OVCAR-3
OVCAR-4 = tested on: OVCAR-4
OVCAR-8 = tested on: OVCAR-8
SF-295 = tested on: SF-295
SK-MEL-5 = tested on: SK-MEL-5
SNB-19 = tested on: SNB-19
CAKI-1 = tested on: CAKI-1
COLO 205 = tested on: COLO 205
HCC 2998 = tested on: HCC 2998
HOP-62 = tested on: HOP-62
HOP-92 = tested on: HOP-92
OVCAR-5 = tested on: OVCAR-5

Structure (SMILES)	GI50 (786-0)	GI50 (HL-60)	GI50 (K562)	GI50 (LOX IMVI)	GI50 (MOLT-4)	GI50 (OVCAR-3)	GI50 (OVCAR-4)	GI50 (OVCAR-8)	GI50 (SF-295)	GI50 (SK-MEL-5)	GI50 (SNB-19)	GI50 (CAKI-1)	GI50 (COLO 205)	GI50 (HCC 2998)	GI50 (HOP-62)	GI50 (HOP-92)	GI50 (OVCAR-5)
O=C(NN1C(=O)C(Cl)C1c1ccc(O)cc1)c1ccccc1O (configuration not stated)	18.7 µM (inactive)	25.2 µM (inactive)	22.4 µM (inactive)	16.7 µM (inactive)	27.6 µM (inactive)	16.7 µM (inactive)	23.7 µM (inactive)	13.5 µM (inactive)	16.6 µM (inactive)	14.6 µM (inactive)	23 µM (inactive)						
O=C1C=C(O)c2nc(O)ccc2C1=O	> 100 µM (inactive)	> 100 µM (inactive)	> 100 µM (inactive)	> 100 µM (inactive)	> 100 µM (inactive)	> 100 µM (inactive)	26.2 µM (inactive)	> 100 µM (inactive)	> 100 µM (inactive)	> 100 µM (inactive)	> 100 µM (inactive)	> 100 µM (inactive)	> 100 µM (inactive)	> 100 µM (inactive)	> 100 µM (inactive)	> 100 µM (inactive)	
CCc1cccc(C(C)C)c1C1C(=O)C(=O)N(c2nc3ccccc3s2)C(=O)C1=O	> 100 µM (inactive)	> 100 µM (inactive)	> 100 µM (inactive)	> 100 µM (inactive)	> 100 µM (inactive)	> 100 µM (inactive)	> 100 µM (inactive)		> 100 µM (inactive)	> 100 µM (inactive)	71.9 µM (inactive)	> 100 µM (inactive)	> 100 µM (inactive)	> 100 µM (inactive)	> 100 µM (inactive)	38.7 µM (inactive)	> 100 µM (inactive)
Cc1cc(C)[n+]2c(c1)C=CC2.[O-][Cl+3]([O-])([O-])[O-]	37.2 µM (inactive)	2.94 µM (inactive)		17.1 µM (inactive)		11.7 µM (inactive)	49.9 µM (inactive)	28.6 µM (inactive)	25.1 µM (inactive)	13.9 µM (inactive)	42.7 µM (inactive)	15.6 µM (inactive)	15 µM (inactive)	> 100 µM (inactive)	57.1 µM (inactive)	8.57 µM (inactive)	> 100 µM (inactive)
CC(=O)NCc1c(C(N)=O)ncn1Cc1ccccc1	> 100 µM (inactive)	> 100 µM (inactive)	> 100 µM (inactive)	> 100 µM (inactive)	> 100 µM (inactive)	> 100 µM (inactive)	> 100 µM (inactive)	> 100 µM (inactive)	> 100 µM (inactive)	> 100 µM (inactive)	> 100 µM (inactive)	> 100 µM (inactive)	> 100 µM (inactive)	> 100 µM (inactive)	> 100 µM (inactive)	> 100 µM (inactive)	
CC(=O)Nc1ccc(C(=O)N2N=C(C)/C(=C/c3ccc(O)cc3)C2=O)cc1	> 100 µM (inactive)	> 100 µM (inactive)	> 100 µM (inactive)	> 100 µM (inactive)	> 100 µM (inactive)	> 100 µM (inactive)	> 100 µM (inactive)	> 100 µM (inactive)	> 100 µM (inactive)	> 100 µM (inactive)	> 100 µM (inactive)	> 100 µM (inactive)	> 100 µM (inactive)	> 100 µM (inactive)	> 100 µM (inactive)		> 100 µM (inactive)
CCCN(CCC)C1=Nc2ccccc2-n2cnnc2C1	> 100 µM (inactive)	> 100 µM (inactive)	> 100 µM (inactive)	> 100 µM (inactive)	> 100 µM (inactive)	> 100 µM (inactive)	> 100 µM (inactive)	> 100 µM (inactive)	> 100 µM (inactive)	> 100 µM (inactive)	> 100 µM (inactive)		> 100 µM (inactive)		> 100 µM (inactive)		> 100 µM (inactive)
CN(C)c1nc(N(C)C)sc(=O)n1	> 100 µM (inactive)	> 100 µM (inactive)	> 100 µM (inactive)		> 100 µM (inactive)		> 100 µM (inactive)	> 100 µM (inactive)	> 100 µM (inactive)	> 100 µM (inactive)	> 100 µM (inactive)	> 100 µM (inactive)		> 100 µM (inactive)	> 100 µM (inactive)	> 100 µM (inactive)	> 100 µM (inactive)
COc1ccc(C(c2c(O)c3ccccc3n(-c3ccccc3)c2=O)c2c(O)c3ccccc3n(-c3ccccc3)c2=O)cc1	25.4 µM (inactive)		> 100 µM (inactive)	> 100 µM (inactive)	> 100 µM (inactive)	> 100 µM (inactive)	> 100 µM (inactive)			> 100 µM (inactive)	> 100 µM (inactive)	> 100 µM (inactive)	> 100 µM (inactive)	> 100 µM (inactive)	> 100 µM (inactive)	49.2 µM (inactive)	> 100 µM (inactive)
O=C1c2ccccc2C(=O)N1C/C=N/NS(=O)(=O)c1ccc2ccccc2c1	> 100 µM (inactive)	> 100 µM (inactive)	> 100 µM (inactive)		> 100 µM (inactive)	> 100 µM (inactive)	> 100 µM (inactive)	> 100 µM (inactive)	> 100 µM (inactive)	> 100 µM (inactive)	> 100 µM (inactive)	> 100 µM (inactive)	> 100 µM (inactive)	> 100 µM (inactive)	> 100 µM (inactive)		> 100 µM (inactive)
O=C(O)c1c[nH]c2c(=O)[nH]cnc12	> 100 µM (inactive)	> 100 µM (inactive)	> 100 µM (inactive)	> 100 µM (inactive)	> 100 µM (inactive)	> 100 µM (inactive)		> 100 µM (inactive)	> 100 µM (inactive)	> 100 µM (inactive)	> 100 µM (inactive)	> 100 µM (inactive)	> 100 µM (inactive)	> 100 µM (inactive)	> 100 µM (inactive)	> 100 µM (inactive)	> 100 µM (inactive)
O=C(Nc1c(Cl)cc([N+](=O)[O-])cc1Cl)/C(=N\Nc1cccc(Cl)c1)c1c(O)c2ccccc2oc1=O	> 100 µM (inactive)	71.9 µM (inactive)	65.9 µM (inactive)		> 100 µM (inactive)	> 100 µM (inactive)	> 100 µM (inactive)	> 100 µM (inactive)	> 100 µM (inactive)	> 100 µM (inactive)	87.1 µM (inactive)		> 100 µM (inactive)	> 100 µM (inactive)	74 µM (inactive)		31.3 µM (inactive)
CC(=O)Oc1ccc(O)c2c1CCCC2	> 100 µM (inactive)	3.66 µM (inactive)	22.2 µM (inactive)	19.4 µM (inactive)	12.1 µM (inactive)	12.5 µM (inactive)	19 µM (inactive)	18 µM (inactive)	> 100 µM (inactive)	> 45.7 µM (inactive)	> 100 µM (inactive)	31.1 µM (inactive)	22.4 µM (inactive)	> 100 µM (inactive)	> 100 µM (inactive)		> 100 µM (inactive)
CCOC(=O)CN(Cn1cncn1)Cn1cncn1	58.6 µM (inactive)	35.7 µM (inactive)	40.6 µM (inactive)	21 µM (inactive)	45.4 µM (inactive)	19.6 µM (inactive)	46.8 µM (inactive)	24.7 µM (inactive)	39.4 µM (inactive)	24.2 µM (inactive)		56 µM (inactive)	36.9 µM (inactive)	33.2 µM (inactive)	> 100 µM (inactive)	> 100 µM (inactive)	> 100 µM (inactive)
C#C[C@@]1(O)CCCC2=CC(=O)C[C@]21C	> 100 µM (inactive)	> 100 µM (inactive)	> 100 µM (inactive)		> 100 µM (inactive)	> 100 µM (inactive)		> 100 µM (inactive)	> 100 µM (inactive)	> 100 µM (inactive)	> 100 µM (inactive)		> 100 µM (inactive)	> 100 µM (inactive)		> 100 µM (inactive)	> 100 µM (inactive)
C[N+](C)(C)CC1CCCCC1O (configuration not stated)	> 100 µM (inactive)			> 100 µM (inactive)	> 100 µM (inactive)	> 100 µM (inactive)	> 100 µM (inactive)	> 100 µM (inactive)	> 100 µM (inactive)	> 100 µM (inactive)		> 100 µM (inactive)	> 100 µM (inactive)	> 100 µM (inactive)	> 100 µM (inactive)	> 100 µM (inactive)	> 100 µM (inactive)
CCCC(C)NC1=C(NC(C)=O)C(=O)c2ccccc2C1=O (configuration not stated)	> 100 µM (inactive)	97.3 µM (inactive)	> 100 µM (inactive)	> 100 µM (inactive)	> 100 µM (inactive)	> 100 µM (inactive)	> 100 µM (inactive)	> 100 µM (inactive)	> 100 µM (inactive)	73.8 µM (inactive)	> 100 µM (inactive)		> 100 µM (inactive)	> 100 µM (inactive)	> 100 µM (inactive)	47.9 µM (inactive)	
CC1=C(CO)C(=O)O[C@@H]([C@@H](C)[C@H]2CC[C@H]3[C@@H]4C[C@H]5O[C@]56[C@@H](O)C=CC(=O)[C@]6(C)[C@H]4CC[C@]23C)C1 [WITHAFERIN A]	0.401 µM (active)	0.0394 µM (active)	0.193 µM (active)		0.187 µM (active)	1.05 µM (active)	0.566 µM (active)	0.374 µM (active)	4.22 µM (inactive)	1.68 µM (inactive)	2.99 µM (inactive)	0.463 µM (active)	0.406 µM (active)	0.509 µM (active)	2.04 µM (inactive)	0.467 µM (active)	1.91 µM (inactive)
